Legend:
Type in all cases: cell-based
[1] = target: T1, Sodium channel protein type 5 subunit alpha (Homo sapiens, UniProt Q14524); assay: Inhibition of human Nav1.5 expressed in CHO-K1 cells preincubated for 3 mins followed by incubation under atrial fibrillation-mimicking condition at 5 Hz with -85 mV holding potential for 12 sec by automated Qpatch electrophysiological recording
[2] = target: T1, Sodium channel protein type 5 subunit alpha; assay: Inhibition of human Nav1.5 expressed in CHO-K1 cells preincubated for 3 mins followed by incubation under ventricular condition at sinus rate at 1 Hz with -100 mV holding potential for 25 sec by automated Qpatch electrophysiological recording
[3] = target: T1, Sodium channel protein type 5 subunit alpha; assay: Inhibition of human Nav1.5 expressed in CHO-K1 cells preincubated with compound for 3 mins in presence of ATXII followed by incubation under ventricular condition at sinus rate at 1 Hz with -100 mV holding potential for 25 sec by automated Qpatch electrophysiological recording

T1 sequence (Q14524 whole entry): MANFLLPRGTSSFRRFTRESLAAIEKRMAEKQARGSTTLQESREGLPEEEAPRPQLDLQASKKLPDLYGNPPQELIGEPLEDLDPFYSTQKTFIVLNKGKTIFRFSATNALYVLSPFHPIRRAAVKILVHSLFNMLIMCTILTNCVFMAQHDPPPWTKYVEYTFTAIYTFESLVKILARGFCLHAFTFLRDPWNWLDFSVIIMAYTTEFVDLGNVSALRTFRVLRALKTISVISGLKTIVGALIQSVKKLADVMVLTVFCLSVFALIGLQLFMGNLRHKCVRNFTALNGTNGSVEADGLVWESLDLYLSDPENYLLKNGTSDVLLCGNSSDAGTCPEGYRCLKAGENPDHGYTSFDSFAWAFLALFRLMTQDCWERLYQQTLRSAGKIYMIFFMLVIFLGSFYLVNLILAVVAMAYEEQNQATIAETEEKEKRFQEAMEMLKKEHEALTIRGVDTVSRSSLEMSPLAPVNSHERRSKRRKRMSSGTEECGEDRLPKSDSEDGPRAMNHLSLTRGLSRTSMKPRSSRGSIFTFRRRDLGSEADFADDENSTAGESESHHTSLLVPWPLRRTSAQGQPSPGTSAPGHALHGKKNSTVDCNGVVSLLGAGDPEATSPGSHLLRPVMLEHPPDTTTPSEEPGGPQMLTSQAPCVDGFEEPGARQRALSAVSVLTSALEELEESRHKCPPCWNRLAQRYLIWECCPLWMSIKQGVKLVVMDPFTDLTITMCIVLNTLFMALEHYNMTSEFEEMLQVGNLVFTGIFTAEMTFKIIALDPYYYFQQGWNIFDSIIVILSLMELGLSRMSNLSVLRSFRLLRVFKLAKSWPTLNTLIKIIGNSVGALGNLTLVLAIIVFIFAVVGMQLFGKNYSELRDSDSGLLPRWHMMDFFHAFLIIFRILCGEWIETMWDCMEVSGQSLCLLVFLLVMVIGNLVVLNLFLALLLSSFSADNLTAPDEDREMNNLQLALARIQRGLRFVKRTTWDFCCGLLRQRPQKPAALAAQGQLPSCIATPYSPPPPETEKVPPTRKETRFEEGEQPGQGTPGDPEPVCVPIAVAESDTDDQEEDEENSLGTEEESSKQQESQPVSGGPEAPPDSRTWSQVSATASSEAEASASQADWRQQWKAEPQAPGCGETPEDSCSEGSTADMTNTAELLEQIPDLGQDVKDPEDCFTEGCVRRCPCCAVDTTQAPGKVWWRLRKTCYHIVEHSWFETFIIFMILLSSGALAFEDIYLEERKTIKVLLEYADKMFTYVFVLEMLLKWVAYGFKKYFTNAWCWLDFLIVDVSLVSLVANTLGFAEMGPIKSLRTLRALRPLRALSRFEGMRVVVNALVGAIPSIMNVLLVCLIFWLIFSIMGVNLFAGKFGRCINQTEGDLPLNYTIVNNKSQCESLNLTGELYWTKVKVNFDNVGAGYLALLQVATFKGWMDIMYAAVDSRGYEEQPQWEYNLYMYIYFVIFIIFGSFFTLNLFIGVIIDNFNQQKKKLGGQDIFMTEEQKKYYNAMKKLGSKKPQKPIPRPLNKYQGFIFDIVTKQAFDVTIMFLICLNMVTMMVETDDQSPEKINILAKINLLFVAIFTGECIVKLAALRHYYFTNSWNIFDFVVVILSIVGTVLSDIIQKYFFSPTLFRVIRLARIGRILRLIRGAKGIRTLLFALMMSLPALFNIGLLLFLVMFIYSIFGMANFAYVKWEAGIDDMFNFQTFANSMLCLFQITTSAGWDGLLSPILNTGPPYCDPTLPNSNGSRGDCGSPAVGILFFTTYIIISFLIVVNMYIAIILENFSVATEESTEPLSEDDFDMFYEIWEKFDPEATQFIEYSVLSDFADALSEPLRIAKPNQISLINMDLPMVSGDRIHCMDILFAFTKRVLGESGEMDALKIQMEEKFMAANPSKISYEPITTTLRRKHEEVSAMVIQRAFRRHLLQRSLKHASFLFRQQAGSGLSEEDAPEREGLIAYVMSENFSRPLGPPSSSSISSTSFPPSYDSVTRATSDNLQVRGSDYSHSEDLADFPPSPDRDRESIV

Row | Structure (SMILES) | IC50 [1] | IC50 [2] | IC50 [3]
1 | C[C@](O)(CS(N)(=O)=O)c1cccc(-c2nnn(Cc3cc(OC(F)(F)F)ccc3F)n2)n1 | 0.8 µM | – | –
2 | C[C@@](O)(CS(N)(=O)=O)c1ccc(F)c(-c2nnn(Cc3cc(OC(F)(F)F)ccc3F)n2)c1 | 1 µM | > 30 µM | 11 µM
3 | C[C@](O)(CS(N)(=O)=O)c1ccc(Cl)c(-c2nnn(Cc3cc(OC(F)(F)F)ccc3F)n2)c1 | 1.3 µM | 28 µM | 15 µM
4 | C[C@@](O)(CS(N)(=O)=O)c1ccc(Cl)c(-c2nnn(Cc3cc(OC(F)(F)F)ccc3F)n2)c1 | 1.3 µM | > 30 µM | 28 µM
5 | C[C@@](O)(CS(N)(=O)=O)c1cccc(-c2nnn(Cc3cc(OC(F)(F)F)ccc3F)n2)n1 | 1 µM | – | –

From ChEMBL document CHEMBL6134915, “Novel Sulfonamide Derivatives as Nav1.5 Sodium Channel Blockers for Treating Atrial Fibrillation” (ACS Med Chem Lett, 2025)
